We go through 23 compounds from PubChem BioAssay (NCI).

Test systems include MALME-3M melanoma; SNB-19 CNS; SW-620 colon; NCI-H460 lung; IGROV1 ovarian; SK-OV-3 ovarian; MDA-MB-231 breast; NCI-H226 lung.
Holding throughout (assay): growth of human tumour cells (NCI), 48 h

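A five-concentration, 48-hour dose response in 96-well plates underlies each endpoint, interpolated linearly between surrounding concentrations. The concentration for 50% growth inhibition is given as GI50. TGI marks complete inhibition of growth.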 Where a SMILES comes first, the peptide text is derived from it. The star is where a group is joined. Ethyl(2-NMe3+) = C[N+](C)(C)CC*; Boc = CC(C)(C)OC(=O)* Where only a bound is given, the exact number is not on record here.

Consider `CN1CCCOC(c2ccc([N+](=O)[O-])cc2)O1` (stereo not given), for which the TGI in the assay with MALME-3M melanoma, in the assay on SNB-19 CNS, with SW-620 colon, in the assay on NCI-H460 lung, with IGROV1 ovarian and with SK-OV-3 ovarian was more than 100 µM throughout. The TGI in the assay with MDA-MB-231 breast and with NCI-H226 lung was more than 100 µM in each case.
With `Cc1ccc(C2=C(C#N)C(=O)N3CCN=C3S2)cc1`, the TGI with MALME-3M melanoma, with SNB-19 CNS, in the assay on SW-620 colon, with NCI-H460 lung, with IGROV1 ovarian and in the assay on SK-OV-3 ovarian was more than 100 µM each time. In addition, the TGI in the assay with MDA-MB-231 breast and in the assay with NCI-H226 lung was more than 100 µM throughout.
As to `CC1=C(C)C1[N+](=O)[O-]`, the TGI in the assay with MALME-3M melanoma, in the assay on SNB-19 CNS, in the assay with SW-620 colon, in the assay with NCI-H460 lung, with IGROV1 ovarian and with SK-OV-3 ovarian was more than 100 µM throughout. Moreover, the TGI in the assay on MDA-MB-231 breast and in the assay with NCI-H226 lung was more than 100 µM each time.
With `N#Cc1cc(-c2nc3c(F)cccc3s2)ccc1N`, the TGI in the assay with MALME-3M melanoma, in the assay on SNB-19 CNS, in the assay with SW-620 colon, with NCI-H460 lung, in the assay with IGROV1 ovarian and in the assay with SK-OV-3 ovarian was more than 100 µM in each case. The TGI with MDA-MB-231 breast and with NCI-H226 lung was more than 100 µM each time.
For `COc1cc([C@H]2CC(=O)C[C@H](c3cc(OC)c(OC)c(OC)c3)C23C(=O)c2ccccc2C3=O)cc(OC)c1OC`, the TGI in the assay with MALME-3M melanoma, in the assay on SNB-19 CNS, with SW-620 colon, with NCI-H460 lung, with IGROV1 ovarian and with SK-OV-3 ovarian was more than 100 µM each time. Also, the TGI in the assay with MDA-MB-231 breast and in the assay with NCI-H226 lung was more than 100 µM throughout.
In the case of `O=C1C=CC2(O)OCCN(CCO)C2=C1` (stereo not given) (tested in a mixture with another compound), the TGI with MALME-3M melanoma, in the assay with SNB-19 CNS, in the assay on SW-620 colon, in the assay on NCI-H460 lung, in the assay with IGROV1 ovarian and with SK-OV-3 ovarian was more than 100 µM in each case. Further, the TGI in the assay on MDA-MB-231 breast and in the assay with NCI-H226 lung was more than 100 µM throughout.
Turning to `Cc1c2c(Cl)c3c(c(Cl)c2c(C)c2c(Cl)c4c(c(Cl)c12)C(c1ccccc1)(c1ccccc1)C4(c1ccccc1)c1ccccc1)C(c1ccccc1)(c1ccccc1)C3(c1ccccc1)c1ccccc1`, the TGI in the assay with MALME-3M melanoma, with SNB-19 CNS, with SW-620 colon, in the assay on NCI-H460 lung, with IGROV1 ovarian and with SK-OV-3 ovarian was more than 100 µM each time. Besides, the TGI in the assay with MDA-MB-231 breast and with NCI-H226 lung was more than 100 µM each time.
For the compound `CC(=O)c1cccc(Nc2nc3ccc(Cl)cc3c3[nH]c4ccccc4c23)c1`, the TGI in the assay with MALME-3M melanoma is more than 100 µM; in the assay with SNB-19 CNS, 48.6 µM; with SW-620 colon it was more than 85.6 µM; in the assay on NCI-H460 lung it was 6.41 µM; with IGROV1 ovarian it was more than 48.6 µM; with SK-OV-3 ovarian it was 15.9 µM. In addition, the TGI came to 63.8 µM in the assay with MDA-MB-231 breast and 67.1 µM in the assay with NCI-H226 lung. Also, the GI50 in the assay on NCI-H226 lung was 10.4 µM.
Take `CCN(C(C)=O)c1cnc(/C=N/NC(N)=S)c2ccccc12`: the TGI in the assay with MALME-3M melanoma is more than 100 µM; in the assay with SNB-19 CNS, more than 100 µM; in the assay with SW-620 colon, more than 100 µM; in the assay with NCI-H460 lung, more than 39.1 µM; with IGROV1 ovarian, more than 100 µM; in the assay with SK-OV-3 ovarian, more than 100 µM. The TGI with MDA-MB-231 breast and in the assay with NCI-H226 lung was more than 100 µM each time.
Regarding `O=P1(c2ccccc2)C(c2ccccc2)=CC=C1c1ccccc1`, the TGI with MALME-3M melanoma, with SNB-19 CNS, in the assay with SW-620 colon, with NCI-H460 lung, in the assay on IGROV1 ovarian and in the assay with SK-OV-3 ovarian was more than 100 µM in each case. Besides, the TGI with MDA-MB-231 breast and in the assay with NCI-H226 lung was more than 100 µM each time.
In the case of `COc1ccc2c(c1)-c1[nH]c3ccc(OC)cc3c1CC2`, the TGI worked out at 28.7 µM with MALME-3M melanoma; 30.1 µM in the assay with SNB-19 CNS; 49.4 µM with SW-620 colon; 32.9 µM with NCI-H460 lung; 26.8 µM with IGROV1 ovarian; 33.8 µM in the assay on SK-OV-3 ovarian. Besides, the TGI in the assay on MDA-MB-231 breast was 35 µM; with NCI-H226 lung, 24.3 µM.
On to `N#Cc1ccc(C(=O)/C=C/c2ccc(O)c(O)c2)cc1`, for which the TGI with MALME-3M melanoma was 29.3 µM; in the assay on SNB-19 CNS it was 29.3 µM; with SW-620 colon it was 26.2 µM; in the assay on NCI-H460 lung, 29.8 µM; in the assay on IGROV1 ovarian, 27 µM; in the assay with SK-OV-3 ovarian, more than 57.7 µM. The results for the TGI in the assay on MDA-MB-231 breast and in the assay on NCI-H226 lung were 30.7 µM and 62.7 µM, respectively.
For `Cc1c(F)c(N)c2c(=O)cc(-c3ccc(N)c(F)c3)oc2c1F`, the TGI in the assay on MALME-3M melanoma was more than 91.4 µM; with SNB-19 CNS, 46.4 µM; in the assay with SW-620 colon, more than 100 µM; in the assay on NCI-H460 lung it was 24.2 µM; in the assay with IGROV1 ovarian, 25.2 µM; in the assay with SK-OV-3 ovarian, 38.1 µM. Moreover, the TGI in the assay on MDA-MB-231 breast worked out at 46.3 µM; in the assay on NCI-H226 lung, 36 µM.
As to `Nc1ccc(CCSSCCc2ccc(N)cc2)cc1`, the TGI was 41.6 µM in the assay with MALME-3M melanoma; more than 100 µM in the assay with SNB-19 CNS; more than 76.8 µM in the assay on SW-620 colon; 86.8 µM in the assay with NCI-H460 lung; more than 100 µM with IGROV1 ovarian; more than 100 µM with SK-OV-3 ovarian. Besides, the TGI with MDA-MB-231 breast is more than 91.1 µM; in the assay with NCI-H226 lung, more than 100 µM.
Consider `CC(NC(=O)C(Cc1ccc(OCC[N+](C)(C)C)cc1)NC(=O)OC(C)(C)C)C(=O)NC(Cc1ccccc1)C(=O)NCC(N)=O` (stereo not given) (Boc-Y(Ethyl(2-NMe3+))AFG-NH2; configuration not given here), for which the TGI was 69.7 µM with MALME-3M melanoma; 34.3 µM in the assay on SNB-19 CNS; more than 100 µM in the assay with SW-620 colon; more than 100 µM in the assay with NCI-H460 lung; 58.4 µM in the assay with IGROV1 ovarian; 22.7 µM with SK-OV-3 ovarian. The TGI with MDA-MB-231 breast is 9.1 µM; in the assay with NCI-H226 lung it was 59 µM.
As for `O=C(NNCc1ccco1)c1cc2ccccc2[nH]1`, the TGI in the assay with MALME-3M melanoma, with SNB-19 CNS, in the assay with SW-620 colon, in the assay with NCI-H460 lung, in the assay with IGROV1 ovarian and in the assay on SK-OV-3 ovarian was more than 100 µM throughout. Besides, the TGI with MDA-MB-231 breast and in the assay on NCI-H226 lung was more than 100 µM in each case.
In the case of `CCN(CC)c1c(-c2c(N(CC)CC)c(OC(C)=O)c3sccn3c2=O)c(=O)n2ccsc2c1OC(C)=O`, the TGI in the assay on MALME-3M melanoma, in the assay on SNB-19 CNS, in the assay on SW-620 colon, with NCI-H460 lung, with IGROV1 ovarian and with SK-OV-3 ovarian was more than 100 µM throughout. The TGI in the assay with MDA-MB-231 breast is 57 µM; in the assay with NCI-H226 lung, more than 100 µM.
Regarding `Cc1ccc(C2SC(N)=Nc3c2c(C)nn3C(=O)c2ccccc2O)cc1` (stereo not given), the TGI with MALME-3M melanoma, in the assay with SNB-19 CNS, in the assay on SW-620 colon, in the assay on NCI-H460 lung, in the assay on IGROV1 ovarian and with SK-OV-3 ovarian was more than 10 µM each time. Further, the TGI in the assay with MDA-MB-231 breast and in the assay on NCI-H226 lung was more than 10 µM throughout.
On to `Oc1cc(-c2ccc(Cl)cc2)cn2c1nc1ccccc12`, for which the TGI in the assay with MALME-3M melanoma, in the assay with SNB-19 CNS, with SW-620 colon, in the assay with NCI-H460 lung, with IGROV1 ovarian and in the assay on SK-OV-3 ovarian was more than 100 µM throughout. In addition, the TGI in the assay on MDA-MB-231 breast and in the assay on NCI-H226 lung was more than 100 µM in each case.
Regarding `COc1ccc(NC(=O)/C(=N/NC(N)=S)C2C(=O)NC(=S)NC2=O)c(OC)c1`, the TGI in the assay with MALME-3M melanoma, in the assay with SNB-19 CNS, in the assay with SW-620 colon, with NCI-H460 lung, in the assay on IGROV1 ovarian and in the assay on SK-OV-3 ovarian was more than 100 µM each time. Further, the TGI with MDA-MB-231 breast and in the assay with NCI-H226 lung was more than 100 µM in each case.
Consider `NC(=S)N/N=C1/CCCC2CCCC[C@@H]12` (stereo not given in full), for which the TGI with MALME-3M melanoma, in the assay with SNB-19 CNS, in the assay on SW-620 colon, in the assay on NCI-H460 lung, in the assay on IGROV1 ovarian and with SK-OV-3 ovarian was more than 100 µM throughout. The TGI in the assay with MDA-MB-231 breast and in the assay on NCI-H226 lung was more than 100 µM throughout.
Take `COC(=O)C(Cc1ccc(Oc2cc(CC(NC(=O)c3ccccc3)C(=O)OC)ccc2OC)cc1)NC(=O)c1ccccc1` (stereo not given): the TGI was 29.8 µM with MALME-3M melanoma; more than 100 µM in the assay with SNB-19 CNS; more than 100 µM with SW-620 colon; more than 100 µM in the assay with NCI-H460 lung; more than 100 µM in the assay with IGROV1 ovarian; more than 100 µM in the assay on SK-OV-3 ovarian. Besides, the values for the TGI in the assay with MDA-MB-231 breast and in the assay on NCI-H226 lung were more than 78.8 µM and more than 64.5 µM, respectively.
Take `COc1ccc(N2C(=O)C(C)SC2c2cc3cc(Br)ccc3nc2Cl)cc1` (stereo not given): the TGI with MALME-3M melanoma, in the assay on SNB-19 CNS, in the assay on SW-620 colon, in the assay with NCI-H460 lung, in the assay with IGROV1 ovarian and in the assay with SK-OV-3 ovarian was more than 100 µM each time. The TGI in the assay on MDA-MB-231 breast and in the assay with NCI-H226 lung was more than 100 µM each time.
